Test results taken from the supplement of paper PMC10307832.

What was measured:
Assay in all cases: relative viability (nuclei count vs DMSO), 5 days (fraction); higher = more cells survive
Neratinib + Trametinib = compound: CCOc1cc2ncc(C#N)c(Nc3ccc(OCc4ccccn4)c(Cl)c3)c2cc1NC(=O)/C=C/CN(C)C [Neratinib] + CC(=O)Nc1cccc(-n2c(=O)n(C3CC3)c(=O)c3c(Nc4ccc(I)cc4F)n(C)c(=O)c(C)c32)c1 [Trametinib] (partner 0.02 µM)
Procedure, shortened: (§1)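 Medians of duplicate plates are given as relative viability. That measure is the nuclei count in treated wells divided by the count in vehicle wells. Counts were taken on 4× images of lung cancer cell lines in 1536-well plates, 5 days after pin-tool dosing the day after seeding with one drug alone or a fixed anchor-drug dose plus five library-drug doses (not always all listed) in √10 steps.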

Neratinib + OSI-027 = compound: CCOc1cc2ncc(C#N)c(Nc3ccc(OCc4ccccn4)c(Cl)c3)c2cc1NC(=O)/C=C/CN(C)C [Neratinib] + COc1cccc2cc(-c3nc([C@H]4CC[C@H](C(=O)O)CC4)n4ncnc(N)c34)[nH]c12 [OSI-027] (partner 0.5 µM)
Procedure, shortened: as §1

Neratinib + Lapatinib = compound: CCOc1cc2ncc(C#N)c(Nc3ccc(OCc4ccccn4)c(Cl)c3)c2cc1NC(=O)/C=C/CN(C)C [Neratinib] + CS(=O)(=O)CCNCc1ccc(-c2ccc3ncnc(Nc4ccc(OCc5cccc(F)c5)c(Cl)c4)c3c2)o1 [Lapatinib] (partner 2 µM)
Procedure, shortened: as §1

Neratinib + Linsitinib = compound: CCOc1cc2ncc(C#N)c(Nc3ccc(OCc4ccccn4)c(Cl)c3)c2cc1NC(=O)/C=C/CN(C)C [Neratinib] + C[C@]1(O)C[C@@H](c2nc(-c3ccc4ccc(-c5ccccc5)nc4c3)c3c(N)nccn32)C1 [Linsitinib] (partner 1 µM)
Procedure, shortened: as §1

Row | Cell Line | relative viability (Neratinib + Trametinib; first compound 0.01 µM) | relative viability (Neratinib + Trametinib; first compound 0.03162 µM) | relative viability (Neratinib + Trametinib; first compound 0.1 µM) | relative viability (Neratinib + Trametinib; first compound 0.3162 µM) | relative viability (Neratinib + Trametinib; first compound 1 µM) | relative viability (Neratinib + OSI-027; first compound 0.01 µM) | relative viability (Neratinib + OSI-027; first compound 0.03162 µM) | relative viability (Neratinib + OSI-027; first compound 0.1 µM) | relative viability (Neratinib + OSI-027; first compound 0.3162 µM) | relative viability (Neratinib + OSI-027; first compound 1 µM) | relative viability (Neratinib + Lapatinib; first compound 0.01 µM) | relative viability (Neratinib + Lapatinib; first compound 0.03162 µM) | relative viability (Neratinib + Lapatinib; first compound 0.1 µM) | relative viability (Neratinib + Lapatinib; first compound 0.3162 µM) | relative viability (Neratinib + Lapatinib; first compound 1 µM) | relative viability (Neratinib + Linsitinib; first compound 0.01 µM) | relative viability (Neratinib + Linsitinib; first compound 0.03162 µM) | relative viability (Neratinib + Linsitinib; first compound 0.1 µM) | relative viability (Neratinib + Linsitinib; first compound 0.3162 µM) | relative viability (Neratinib + Linsitinib; first compound 1 µM)
1 | HCC-78 | 0.901 | 0.668 | 0.678 | 0.731 | 0.296 | 0.387 | 0.333 | 0.354 | 0.27 | 0.296 | 0.89 | 1.09 | 0.788 | 0.952 | 0.398 | 0.543 | 0.665 | 0.483 | 0.338 | 0.241
2 | HCC-366 | 0.428 | 0.396 | 0.342 | 0.322 | 0.205 | 1.1 | 0.949 | 0.785 | 0.803 | 0.163 | 1.27 | 1.18 | 0.901 | 1.09 | 1.06 | 0.736 | 0.734 | – | 0.759 | 0.614
3 | HCC-827 | 0.426 | 0.545 | 0.561 | 0.226 | 0.153 | 0.81 | 0.774 | 0.721 | 0.508 | 0.16 | 0.223 | 0.229 | 0.17 | 0.174 | 0.165 | 1 | 0.971 | 0.933 | 0.931 | 0.221
4 | HOP-62 | 0.408 | 0.4 | 0.337 | – | 0.405 | 0.849 | 0.914 | 0.799 | 0.776 | 0.775 | – | – | 0.879 | 0.825 | 1.21 | 0.864 | 1.03 | 1.06 | 1.09 | 1.07
5 | IA-LM | – | – | – | – | – | – | – | – | – | – | 0.708 | 0.822 | 0.63 | 0.914 | 0.619 | 0.537 | 0.87 | 0.581 | 0.541 | 0.628
6 | LC-2-ad | 0.98 | 0.933 | 0.805 | 0.845 | 0.85 | 0.831 | 0.877 | 0.749 | 0.518 | 0.383 | 0.993 | 0.974 | 0.783 | 1.06 | 0.978 | 0.87 | 0.842 | 0.785 | 0.673 | 0.321
7 | LCLC-97TM1 | 0.187 | 0.193 | 0.192 | – | 0.112 | 0.615 | 0.537 | 0.547 | 0.346 | 0.27 | 1.29 | 1.01 | 1.02 | 0.637 | 0.275 | 0.215 | 0.194 | 0.165 | 0.161 | 0.155
8 | LCLC-103H | 0.739 | 0.733 | 0.618 | 0.681 | 0.639 | 0.562 | 0.48 | 0.47 | 0.463 | 0.394 | – | – | – | – | – | 1.21 | 0.975 | – | 0.961 | 0.814
9 | LK-2 | 0.948 | 0.714 | 0.851 | 0.501 | 0.34 | 0.189 | 0.227 | 0.217 | 0.189 | 0.182 | 1.28 | 1.2 | 0.95 | 0.664 | 0.578 | 0.464 | 0.521 | 0.71 | 0.339 | 0.214
10 | LOU-NH91 | 0.795 | 0.746 | 0.698 | 0.67 | 0.597 | 0.706 | 0.715 | 0.471 | 0.46 | 0.408 | 0.809 | 0.776 | 0.733 | 0.743 | 0.567 | 0.871 | 0.831 | 0.656 | 0.504 | 0.529
11 | LU99A | 0.578 | – | 0.515 | 0.527 | 0.43 | 0.287 | 0.311 | 0.292 | 0.288 | 0.26 | 1.04 | 1.05 | 0.692 | 0.587 | 0.385 | 0.608 | 0.643 | 0.365 | 0.575 | 0.215
12 | LXF-289 | 0.739 | 0.733 | 0.674 | 0.685 | 0.536 | 0.876 | 0.875 | 0.777 | 0.759 | 0.542 | – | 0.964 | 0.809 | 0.924 | 0.937 | 0.998 | 1.01 | 0.913 | 0.98 | 0.789
13 | NCI-H441 | 0.509 | 0.428 | 0.356 | 0.332 | 0.245 | 0.681 | 0.566 | 0.598 | 0.357 | 0.275 | – | – | – | – | – | 0.585 | 0.716 | 0.469 | 0.267 | 0.219
14 | NCI-H1299 | – | – | – | – | – | – | – | – | – | – | 0.969 | 0.957 | 0.938 | 0.976 | 1.04 | 0.996 | 1.07 | 0.846 | 0.944 | –
15 | NCI-H1563 | – | – | – | – | – | 0.806 | 0.725 | 0.732 | 0.67 | 0.575 | 0.921 | 0.975 | 0.889 | 1.57 | 0.843 | 1.22 | 1.24 | 0.993 | 1.1 | 0.998
16 | NCI-H1648 | 0.449 | 0.402 | 0.276 | 0.262 | 0.335 | 0.297 | 0.265 | 0.303 | 0.305 | 0.278 | – | – | – | – | – | – | – | – | – | –
17 | NCI-H1650 | 0.62 | 0.744 | 0.494 | 0.405 | 0.315 | 0.557 | 0.598 | 0.435 | – | 0.37 | – | 0.66 | 0.736 | 0.84 | 0.742 | – | – | – | – | –
18 | NCI-H1703 | – | – | – | – | – | – | – | – | – | – | 1.05 | 1.29 | 0.924 | 0.79 | 0.244 | 0.636 | 0.641 | 0.659 | 0.516 | 0.509
19 | NCI-H2170 | 0.873 | 0.862 | 0.631 | 0.178 | 0.171 | 0.761 | 0.771 | 0.287 | 0.22 | 0.239 | 0.284 | 0.278 | 0.289 | 0.301 | 0.255 | – | – | – | – | –
20 | NCI-H2342 | 0.772 | 0.772 | 0.71 | 0.667 | 0.543 | 0.73 | 0.63 | 0.528 | 0.464 | 0.462 | – | – | – | – | – | – | – | – | – | –
21 | SW 900 | 0.866 | 0.906 | 0.527 | 0.729 | 0.467 | 0.597 | 0.604 | 0.621 | 0.574 | 0.385 | – | – | – | – | – | – | – | – | – | –
